Test results published in ChEMBL document CHEMBL1154267, “Imidazo[1,5-a][1,2,4]-triazolo[1,5-d][1,4]benzodiazepines as potent and highly selective GABAA alpha5 inverse agonists with potential for the treatment of cognitive dysfunction” (Bioorg Med Chem Lett, 2009).
Converted amounts (≈) assume the structure as drawn. The source made the active and inactive calls. No cut-off for these calls is given here.

Experiments:
[1] = molecular target: T1, GABA-A receptor; alpha-5/beta-3/gamma-2 (Homo sapiens, UniProt P18507+P28472+P31644); test: Displacement of [3H]flumazenil from GABAA alpha-5-beta-3-gamma-2 receptor; assay type: protein-complex assay
T1 sequence (P18507 whole entry): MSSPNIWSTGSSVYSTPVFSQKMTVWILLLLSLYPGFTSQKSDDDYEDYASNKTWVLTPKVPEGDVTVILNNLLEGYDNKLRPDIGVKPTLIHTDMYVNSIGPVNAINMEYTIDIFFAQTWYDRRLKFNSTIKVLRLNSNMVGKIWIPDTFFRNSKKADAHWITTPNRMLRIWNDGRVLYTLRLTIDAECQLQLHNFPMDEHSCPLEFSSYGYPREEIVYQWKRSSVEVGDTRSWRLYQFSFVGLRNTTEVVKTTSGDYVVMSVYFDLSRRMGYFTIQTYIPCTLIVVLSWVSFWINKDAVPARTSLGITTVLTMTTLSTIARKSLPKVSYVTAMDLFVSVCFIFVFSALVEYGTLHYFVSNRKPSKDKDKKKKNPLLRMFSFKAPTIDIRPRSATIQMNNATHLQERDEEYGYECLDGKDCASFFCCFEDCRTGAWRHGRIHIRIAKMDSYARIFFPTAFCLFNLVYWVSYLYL
T1 sequence (P28472 whole entry): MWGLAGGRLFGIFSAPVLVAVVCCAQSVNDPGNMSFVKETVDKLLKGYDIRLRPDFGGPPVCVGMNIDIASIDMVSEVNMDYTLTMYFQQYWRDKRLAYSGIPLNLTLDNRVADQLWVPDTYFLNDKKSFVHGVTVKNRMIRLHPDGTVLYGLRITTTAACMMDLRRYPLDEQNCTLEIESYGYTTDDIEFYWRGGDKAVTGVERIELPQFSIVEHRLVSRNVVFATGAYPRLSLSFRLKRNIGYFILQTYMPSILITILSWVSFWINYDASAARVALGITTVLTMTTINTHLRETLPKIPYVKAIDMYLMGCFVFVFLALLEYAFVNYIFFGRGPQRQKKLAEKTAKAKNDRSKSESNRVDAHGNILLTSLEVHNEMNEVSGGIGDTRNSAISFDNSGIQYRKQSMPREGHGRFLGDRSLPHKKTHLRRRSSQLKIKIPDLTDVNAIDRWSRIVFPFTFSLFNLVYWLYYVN
T1 sequence (P31644 whole entry): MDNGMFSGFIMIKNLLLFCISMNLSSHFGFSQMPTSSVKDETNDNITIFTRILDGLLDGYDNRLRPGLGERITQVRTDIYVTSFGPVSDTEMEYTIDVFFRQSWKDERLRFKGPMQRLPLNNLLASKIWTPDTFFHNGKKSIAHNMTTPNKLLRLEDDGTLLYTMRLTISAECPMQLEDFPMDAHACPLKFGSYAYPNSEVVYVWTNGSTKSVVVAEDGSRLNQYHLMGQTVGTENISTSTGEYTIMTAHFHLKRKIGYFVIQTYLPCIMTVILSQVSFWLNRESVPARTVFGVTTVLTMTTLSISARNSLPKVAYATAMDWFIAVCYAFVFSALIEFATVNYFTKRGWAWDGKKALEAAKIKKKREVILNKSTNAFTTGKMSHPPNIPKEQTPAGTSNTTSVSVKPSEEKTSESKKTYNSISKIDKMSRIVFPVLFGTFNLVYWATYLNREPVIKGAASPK

[2] = molecular target: GABA-A receptor; alpha-5/beta-3/gamma-2 (Homo sapiens) (UniProt P18507+P28472+P31644); test: Inverse agonist activity at GABAA alpha-5-beta-3-gamma-2 receptor assessed as modulation of GABA-induced chloride ion flux by electrophysiology assay relative to GABA; assay type: functional
[3] = Selectivity ratio of Ki for GABAA alpha-1-beta-3-gamma-2 receptor to Ki for GABAA alpha-5-beta-3-gamma-2 receptor
[4] = molecular target: T2, GABA-A receptor; alpha-2/beta-3/gamma-2 (Homo sapiens, UniProt P18507+P28472+P47869); test: Displacement of [3H]flumazenil from GABAA alpha-2-beta-3-gamma-2 receptor; assay type: protein-complex assay
T2 sequence (P18507 whole entry): T1 sequence (P18507 whole entry)
T2 sequence (P28472 whole entry): T1 sequence (P28472 whole entry)
T2 sequence (P47869 whole entry): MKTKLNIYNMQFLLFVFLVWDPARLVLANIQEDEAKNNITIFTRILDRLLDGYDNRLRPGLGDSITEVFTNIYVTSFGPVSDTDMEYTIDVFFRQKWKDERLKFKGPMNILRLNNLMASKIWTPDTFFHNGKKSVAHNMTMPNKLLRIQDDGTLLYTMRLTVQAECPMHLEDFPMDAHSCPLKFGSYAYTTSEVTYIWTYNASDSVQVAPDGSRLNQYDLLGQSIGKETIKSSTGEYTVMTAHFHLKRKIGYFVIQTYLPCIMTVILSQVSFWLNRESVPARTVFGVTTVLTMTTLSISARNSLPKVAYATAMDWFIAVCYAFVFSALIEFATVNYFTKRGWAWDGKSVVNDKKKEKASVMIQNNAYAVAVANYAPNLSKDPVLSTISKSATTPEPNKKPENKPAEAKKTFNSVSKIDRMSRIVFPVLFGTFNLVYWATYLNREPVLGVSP

[5] = molecular target: T3, GABA-A receptor; alpha-3/beta-3/gamma-2 (Homo sapiens, UniProt P18507+P28472+P34903); test: Displacement of [3H]flumazenil from GABAA alpha-3-beta-3-gamma-2 receptor; assay type: protein-complex assay
T3 sequence (P18507 whole entry): T1 sequence (P18507 whole entry)
T3 sequence (P28472 whole entry): T1 sequence (P28472 whole entry)
T3 sequence (P34903 whole entry): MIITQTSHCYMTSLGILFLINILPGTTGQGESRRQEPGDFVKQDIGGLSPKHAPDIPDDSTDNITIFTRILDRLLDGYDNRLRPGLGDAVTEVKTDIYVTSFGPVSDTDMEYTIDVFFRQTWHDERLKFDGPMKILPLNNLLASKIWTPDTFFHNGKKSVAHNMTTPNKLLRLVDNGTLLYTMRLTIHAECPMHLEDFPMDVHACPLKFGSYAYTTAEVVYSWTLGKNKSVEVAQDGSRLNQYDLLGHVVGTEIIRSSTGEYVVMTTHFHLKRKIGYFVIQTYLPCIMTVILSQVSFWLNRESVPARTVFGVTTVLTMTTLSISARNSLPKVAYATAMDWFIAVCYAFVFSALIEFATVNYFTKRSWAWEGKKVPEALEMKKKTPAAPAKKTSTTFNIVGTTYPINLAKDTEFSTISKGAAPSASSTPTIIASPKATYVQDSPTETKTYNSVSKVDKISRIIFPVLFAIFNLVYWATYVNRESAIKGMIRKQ

[6] = molecular target: T4, GABA-A receptor; alpha-1/beta-3/gamma-2 (Homo sapiens, UniProt P14867+P18507+P28472); test: Displacement of [3H]flumazenil from GABAA alpha-1-beta-3-gamma-2 receptor; assay type: protein-complex assay
T4 sequence (P14867 whole entry): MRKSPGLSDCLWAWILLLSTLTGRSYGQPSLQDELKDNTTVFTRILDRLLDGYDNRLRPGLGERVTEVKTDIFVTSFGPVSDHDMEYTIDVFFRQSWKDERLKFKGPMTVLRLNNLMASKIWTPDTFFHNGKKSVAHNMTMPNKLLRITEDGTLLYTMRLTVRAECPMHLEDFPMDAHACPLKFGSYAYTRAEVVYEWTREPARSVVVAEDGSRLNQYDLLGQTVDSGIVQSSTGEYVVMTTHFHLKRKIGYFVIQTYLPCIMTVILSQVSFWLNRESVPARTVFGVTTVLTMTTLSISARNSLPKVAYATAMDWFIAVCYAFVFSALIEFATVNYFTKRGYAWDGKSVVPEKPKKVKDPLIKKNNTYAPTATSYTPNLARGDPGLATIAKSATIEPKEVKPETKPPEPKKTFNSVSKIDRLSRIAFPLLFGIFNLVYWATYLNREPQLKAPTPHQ
T4 sequence (P18507 whole entry): T1 sequence (P18507 whole entry)
T4 sequence (P28472 whole entry): T1 sequence (P28472 whole entry)

[7] = Selectivity ratio of Ki for GABAA alpha-3-beta-3-gamma-2 receptor to Ki for GABAA alpha-5-beta-3-gamma-2 receptor
[8] = Selectivity ratio of Ki for GABAA alpha-2-beta-3-gamma-2 receptor to Ki for GABAA alpha-5-beta-3-gamma-2 receptor
[9] = molecular target: GABA-A receptor; alpha-1/beta-3/gamma-2 (Homo sapiens) (UniProt P14867+P18507+P28472); test: Inverse agonist activity at GABAA alpha-1-beta-3-gamma-2 receptor assessed as modulation of GABA-induced chloride ion flux by electrophysiology assay relative to GABA; assay type: functional
[10] = Lipophilicity, log D at pH 7.4; assay type: physicochemical; details: buffer
[11] = Half life in rat; assay type: ADME, organism-based; details: in vivo
[12] = Volume of distribution at steady state in rat; assay type: ADME, organism-based; details: in vivo, read-out: Vdss
[13] = Solubility of the compound; assay type: physicochemical
[14] = Permeability by PAMPA; assay type: ADME; details: read-out: permeability
[15] = Oral bioavailability in rat; assay type: ADME, organism-based; details: in vivo
[16] = Ratio of drug level in brain to plasma in rat; assay type: ADME, organism-based; details: brain and plasma
[17] = Clearance in rat; assay type: ADME, organism-based; details: in vivo
Liver microsomes = test: Clearance in human liver microsomes; assay type: ADME, Microsome
Rattus norvegicus [18] = test: Behavioral effect in Lister hooded rat assessed as reversal of Scopolamine-induced impairment of working memory at 1 to 3 mg/kg, ip administered 30 mins before Scopolamine challenge by delayed match to position test; assay type: functional, organism-based
Rattus norvegicus [19] = test: Behavioral effect in Lister hooded rat assessed as inhibition of scopolamine-induced impairment of working memory at 1 to 3 mg/kg, po after 30 mins by delayed match to position test; assay type: functional, organism-based
[20] = molecular target: GABA-A receptor; alpha-2/beta-3/gamma-2 (Homo sapiens) (UniProt P18507+P28472+P47869); test: Inverse agonist activity at GABAA alpha-2-beta-3-gamma-2 receptor assessed as modulation of GABA-induced chloride ion flux by electrophysiology assay relative to GABA; assay type: functional
Rattus norvegicus [21] = test: Behavioral effect in Lister hooded rat assessed as reversal of Scopolamine-induced impairment of working memory at 1 mg/kg, ip administered 30 mins before Scopolamine challenge by delayed match to position test; assay type: functional, organism-based; design: dose 1 mg/kg
[22] = molecular target: GABA-A receptor; alpha-3/beta-3/gamma-2 (Homo sapiens) (UniProt P18507+P28472+P34903); test: Inverse agonist activity at GABAA alpha-3-beta-3-gamma-2 receptor assessed as modulation of GABA-induced chloride ion flux by electrophysiology assay relative to GABA; assay type: functional

Row | Structure (SMILES) | Ki [1] [nM] | Efficacy [2] [%] | Ratio Ki [3] | Ki [4] [nM] | Ki [5] [nM] | Ki [6] [nM] | Ratio Ki [7] | Ratio Ki [8] | further results
1 | Cc1cc(Cc2nc3n(n2)Cc2c(C)ncn2-c2ccc(O)cc2-3)on1 | 1.2 | -7 | 99 | – | – | – | – | – | –
2 | COCc1nc2n(n1)Cc1c(C)ncn1-c1ccc(Br)cc1-2 | 13 | -3 | – | 693 | 592 | 619 | – | – | –
3 | Cc1cc(Cc2nc3n(n2)Cc2c(C)ncn2-c2ccc(OC(F)(F)F)cc2-3)on1 | 11 | -20 | 68 | – | – | – | 111 | 83 | –
4 | Cc1ccc2c(c1)-c1nc(Cc3cc(C)no3)nn1Cc1c(C)ncn1-2 | 0.8 | -16 | 620 | – | – | – | 360 | 332 | –
5 | Cc1noc(Cc2nc3n(n2)Cc2c(C)ncn2-c2ccc(Br)cc2-3)n1 | 0.9 | -18 | – | 317 | 277 | 469 | – | – | –
6 | Cc1ncn2c1Cn1nc(CC3CC3)nc1-c1cc(Br)ccc1-2 | 5 | -12 | 2 | 407 | 407 | 538 | 2 | 2 | –
7 | COc1ccc2c(c1)-c1nc(Cc3cc(C)no3)nn1Cc1c(C)ncn1-2 | 2.2 | -13 | 307 | – | – | – | 222 | 193 | –
8 | Cc1ncn2c1Cn1ncnc1-c1cc(Br)ccc1-2 | 6 | -42 | – | 186 | 132 | 136 | – | – | Efficacy [9]: -16%
9 | Cc1ncn2c1Cn1nc(C(C)(C)C)nc1-c1cc(Br)ccc1-2 | 146 | – | – | 1070 | 1210 | 3160 | – | – | –
10 | Cc1cc(Cc2nc3n(n2)Cc2c(C)ncn2-c2ccc(Br)cc2-3)on1 | 0.6 | -27 | 314 | 105 | 73 | 188 | 122 | 174 | logD [10]: 2.6; half-life [11]: 1.4 h; Vd [12]: 4.6 L/kg; solubility [13]: 7 µg/mL (≈ 17 µM); Papp [14]: 3.3 ×10⁻⁶ cm/s; bioavailability [15]: 34%; Kp [16]: 0.2; clearance [17]: 39 mL/min/kg
11 | Cc1cc(Cc2nc3n(n2)Cc2c(C)ncn2-c2ccccc2-3)on1 | 1.6 | – | 57 | – | – | – | 16 | 20 | –
12 | Cc1ncn2c1Cn1nc(CN3CCCC3=O)nc1-c1cc(Br)ccc1-2 | 7 | -34 | – | 669 | 515 | 624 | – | – | logD [10]: 1.5; half-life [11]: 0.8 h; CL (Liver microsomes): 3000 µL/min/mg; Vd [12]: 1.3 L/kg; solubility [13]: 550 µg/mL (≈ 1330 µM); Activity (Rattus norvegicus [18]): Dose-dependent effect; Activity (Rattus norvegicus [19]): inactive; Papp [14]: 1.5 ×10⁻⁶ cm/s; bioavailability [15]: 32%; Kp [16]: 0.09; clearance [17]: 30 mL/min/kg
13 | Cc1nc2n(n1)Cc1c(C)ncn1-c1ccc(Br)cc1-2 | 20 | -17 | – | 3160 | 1620 | 1420 | – | – | –
14 | Cc1cc(-c2nnc3c4ccccc4c(OCc4ccccn4)nn23)no1 | 1.5 | -41 | – | – | 1.5 | 1.5 | – | – | Efficacy [9]: -9%; Efficacy [20]: 11%; Activity (Rattus norvegicus [21]): Active; Efficacy [22]: 10%
